Tests used:
[1] = target: influenza B virus NA with Ile222Thr mutation (UniProt P03474, I221T, species not given)
[2] = test system: influenza B virus NA with Gly402Ser mutation; assay type: biochemical
[3] = target: influenza B virus NA with Asp198Asn mutation (Influenza B virus, UniProt P27907, D196N)
[4] = target: influenza B virus NA with Ser250Gly mutation (Influenza B virus, UniProt P27907, S248G); assay type: biochemical

CCOC(=O)C1=C[C@@H](OC(CC)CC)[C@H](NC(C)=O)[C@@H](N)C1 [oseltamivir]
reduction in sensitivity compared with median IC50 of type B viruses [1]: 6-7 fold | increase of IC50 of posttreatment isolate compared to virus isolated before treatment [2]: 3.9 fold | reduction in drug sensitivity compared with median IC50 of type B viruses [3]: 3-4 fold | effect of mutation on sensitivity [4]: did not reduce sensitivity

Reference: patent publication US8465960B2 (priority 2007, dated 2013)
